Reference: ChEMBL document CHEMBL1255374, “Species distribution and in vitro antifungal susceptibility patterns of 75 clinical isolates of Fusarium spp. from northern Italy” (2008)
Values after ≈ are worked out from the molar mass of the structure shown.

Key:
Assay type in all cases: functional
Fusarium verticillioides = test: Antimicrobial activity against Fusarium verticillioides after 48 hrs by broth microdilution assay
Fusarium solani = test: Antimicrobial activity against Fusarium solani after 48 hrs by broth microdilution assay
Fusarium proliferatum = test: Antimicrobial activity against Fusarium proliferatum after 48 hrs by broth microdilution assay
Fusarium subglutinans = test: Antimicrobial activity against Fusarium subglutinans after 48 hrs by broth microdilution assay
Fusarium oxysporum = test: Antimicrobial activity against Fusarium oxysporum after 48 hrs by broth microdilution assay

Structure (SMILES) | MIC (Fusarium verticillioides) | MIC (Fusarium solani) | MIC (Fusarium proliferatum) | MIC (Fusarium subglutinans) | MIC (Fusarium oxysporum)
C[C@@H]1[C@H](O)[C@@H](C)/C=C/C=C/C=C/C=C/C=C/C=C/C=C/[C@H](O[C@@H]2O[C@H](C)[C@@H](O)[C@H](N)[C@@H]2O)C[C@@H]2O[C@](O)(C[C@@H](O)C[C@@H](O)[C@H](O)CC[C@@H](O)C[C@@H](O)CC(=O)O[C@H]1C)C[C@H](O)[C@H]2C(=O)O [AMPHOTERICIN B] | 1.53 µg/mL (≈ 1.66 µM) | 1.25 µg/mL (≈ 1.35 µM) | 1.7 µg/mL (≈ 1.84 µM) | 3.3 µg/mL (≈ 3.57 µM) | 2.3 µg/mL (≈ 2.49 µM)
CCC(C)n1ncn(-c2ccc(N3CCN(c4ccc(OCC5COC(Cn6cncn6)(c6ccc(Cl)cc6Cl)O5)cc4)CC3)cc2)c1=O (stereo not given) [ITRACONAZOLE] | 3.33 µg/mL (≈ 4.72 µM) | > 16 µg/mL | > 16 µg/mL | 10.8 µg/mL (≈ 15.3 µM) | > 16 µg/mL
CC[C@@H]([C@H](C)O)n1ncn(-c2ccc(N3CCN(c4ccc(OC[C@@H]5CO[C@@](Cn6cncn6)(c6ccc(F)cc6F)C5)cc4)CC3)cc2)c1=O [POSACONAZOLE] | 0.46 µg/mL (≈ 0.656 µM) | 15.2 µg/mL (≈ 21.7 µM) | 6.4 µg/mL (≈ 9.13 µM) | 10.8 µg/mL (≈ 15.3 µM) | 2.7 µg/mL (≈ 3.85 µM)
C[C@@H](c1ncncc1F)[C@](O)(Cn1cncn1)c1ccc(F)cc1F [VORICONAZOLE] | 1.74 µg/mL (≈ 4.98 µM) | 9.21 µg/mL (≈ 26.4 µM) | 4.2 µg/mL (≈ 12 µM) | 5.6 µg/mL (≈ 16 µM) | 4 µg/mL (≈ 11.5 µM)
